Measured values reported in PubChem BioAssay AID1259407 (Chemical Carcinogenesis Research Information System (CCRIS), 2018).
Active and inactive are the calls of the source. No rule for the calls is given here.

Tested on: CCRIS mutagenicity, Ames/micronucleus/aberration tests
Assay: CCRIS mutagenicity studies
[1] = Test System: AMES SALMONELLA TYPHIMURIUM, Strain/Indicator: TA98, Metabolic Activation: NONE, Method: STANDARD PLATE
[2] = Test System: AMES SALMONELLA TYPHIMURIUM, Strain/Indicator: TA100, Metabolic Activation: NONE, Method: STANDARD PLATE
[3] = Test System: AMES SALMONELLA TYPHIMURIUM, Strain/Indicator: TA102, Metabolic Activation: NONE, Method: STANDARD PLATE

Question: How did the mutagenic call (End Point: IN VITRO CHROMOSOMAL ABERRATIONS, Test System: CHO CELLS, Metabolic Activation: RAT, LIVER, S-9, AROCLOR 1254) turn out when `O=C1O[C@H]([C@@H](O)CO)C(O)=C1O` was run?
Answer: inactive; negative

Question: What about the mutagenic call (End Point: IN VITRO MICRONUCLEUS, Test System: CHINESE HAMSTER OVARY (CHO-K5), Metabolic Activation: NONE) of the same compound?
Answer: active; positive; no statistical analysis was performed

Question: What about the mutagenic call (End Point: In vitro chromosomal aberrations, Test System: Chinese hamster lung CHL/IU cells, Metabolic Activation: None) of the same compound?
Answer: inactive; negative. toxicicity at highest dose.

Question: And the mutagenic call (End Point: In vitro chromosomal aberrations, Test System: Chinese hamster ovary (CHO) cells, Metabolic Activation: None)?
Answer: inactive; negative; vitamin c, alone or in combination with glutamine, reduced effect of d

Question: And the mutagenic call (End Point: In vitro chromosomal aberrations, Test System: Human peripheral blood lymphocytes, Metabolic Activation: None)?
Answer: active; positive (structural changes); response at highest dose only

Question: What about the mutagenic call (End Point: In vivo chromosomal aberrations, Test System: Bone marrow cells, Species: Rat, Strain/Sex: Wistar/Male and female, Route: Oral) of the same compound?
Answer: inactive; negative; vitamin c, alone or with glutamine, reduced effect of doxorubicin

Question: And the mutagenic call (Test System: AMES SALMONELLA TYPHIMURIUM, Strain/Indicator: TA97, Metabolic Activation: HAMSTER, LIVER, S-9, AROCLOR 1254 (10 OR 30%), Method: PREINCUBATION)?
Answer: inactive; negative

Question: And the mutagenic call (Test System: AMES SALMONELLA TYPHIMURIUM, Strain/Indicator: TA97, Metabolic Activation: NONE, Method: PREINCUBATION)?
Answer: inactive; negative

Question: What about the mutagenic call (Test System: AMES SALMONELLA TYPHIMURIUM, Strain/Indicator: TA97, Metabolic Activation: NONE, Method: STANDARD PLATE) of the same compound?
Answer: inactive; negative

Question: What about the mutagenic call (Test System: AMES SALMONELLA TYPHIMURIUM, Strain/Indicator: TA97, Metabolic Activation: RAT, LIVER, S-9, AROCLOR 1254 (10 OR 30%), Method: PREINCUBATION) of the same compound?
Answer: inactive; negative

Question: What about the mutagenic call (Test System: AMES SALMONELLA TYPHIMURIUM, Strain/Indicator: TA97, Metabolic Activation: RAT, LIVER, S-9, AROCLOR 1254, Method: STANDARD PLATE) of the same compound?
Answer: inactive; negative

Question: And the mutagenic call (Test System: AMES SALMONELLA TYPHIMURIUM, Strain/Indicator: TA98, Metabolic Activation: HAMSTER, LIVER, S-9, AROCLOR 1254 (10 OR 30%), Method: PREINCUBATION)?
Answer: inactive; negative

Question: What about the mutagenic call (Test System: AMES SALMONELLA TYPHIMURIUM, Strain/Indicator: TA98, Metabolic Activation: NONE, Method: PREINCUBATION) of the same compound?
Answer: inactive; negative

Question: What about the mutagenic call [1] of the same compound?
Answer: inactive; negative

Question: What about the mutagenic call (Test System: AMES SALMONELLA TYPHIMURIUM, Strain/Indicator: TA98, Metabolic Activation: RAT, LIVER, S-9, AROCLOR 1254 (10 OR 30%), Method: PREINCUBATION) of the same compound?
Answer: inactive; negative

Question: And the mutagenic call (Test System: AMES SALMONELLA TYPHIMURIUM, Strain/Indicator: TA98, Metabolic Activation: RAT, LIVER, S-9, AROCLOR 1254, Method: STANDARD PLATE)?
Answer: inactive; negative

Question: And the mutagenic call (Test System: AMES SALMONELLA TYPHIMURIUM, Strain/Indicator: TA100, Metabolic Activation: HAMSTER, LIVER, S-9, AROCLOR 1254 (10 OR 30%), Method: PREINCUBATION)?
Answer: inactive; negative

Question: What about the mutagenic call (Test System: AMES SALMONELLA TYPHIMURIUM, Strain/Indicator: TA100, Metabolic Activation: NONE, Method: PREINCUBATION) of the same compound?
Answer: inactive; negative

Question: What about the mutagenic call [2] of the same compound?
Answer: inactive; negative

Question: What about the mutagenic call (Test System: AMES SALMONELLA TYPHIMURIUM, Strain/Indicator: TA100, Metabolic Activation: RAT, LIVER, S-9, AROCLOR 1254 (10 OR 30%), Method: PREINCUBATION) of the same compound?
Answer: inactive; negative

Question: And the mutagenic call (Test System: AMES SALMONELLA TYPHIMURIUM, Strain/Indicator: TA100, Metabolic Activation: RAT, LIVER, S-9, AROCLOR 1254, Method: STANDARD PLATE)?
Answer: inactive; negative

Question: What about the mutagenic call [3] of the same compound?
Answer: inactive; negative

Question: And the mutagenic call (Test System: AMES SALMONELLA TYPHIMURIUM, Strain/Indicator: TA104, Metabolic Activation: NONE, Method: STANDARD PLATE)?
Answer: inactive; negative

Question: And the mutagenic call (Test System: AMES SALMONELLA TYPHIMURIUM, Strain/Indicator: TA1535, Metabolic Activation: HAMSTER, LIVER, S-9, AROCLOR 1254 (10 OR 30%), Method: PREINCUBATION)?
Answer: inactive; negative

Question: What about the mutagenic call (Test System: AMES SALMONELLA TYPHIMURIUM, Strain/Indicator: TA1535, Metabolic Activation: NONE, Method: PREINCUBATION) of the same compound?
Answer: inactive; negative

Question: And the mutagenic call (Test System: AMES SALMONELLA TYPHIMURIUM, Strain/Indicator: TA1535, Metabolic Activation: RAT, LIVER, S-9, AROCLOR 1254 (10 OR 30%), Method: PREINCUBATION)?
Answer: inactive; negative

Question: What about the mutagenic call (Test System: AMES SALMONELLA TYPHIMURIUM, Strain/Indicator: TA1537, Metabolic Activation: HAMSTER, LIVER, S-9, AROCLOR 1254 (10 OR 30%), Method: PREINCUBATION) of the same compound?
Answer: inactive; negative

Question: What about the mutagenic call (Test System: AMES SALMONELLA TYPHIMURIUM, Strain/Indicator: TA1537, Metabolic Activation: NONE, Method: PREINCUBATION) of the same compound?
Answer: inactive; negative

Question: And the mutagenic call (Test System: AMES SALMONELLA TYPHIMURIUM, Strain/Indicator: TA1537, Metabolic Activation: RAT, LIVER, S-9, AROCLOR 1254 (10 OR 30%), Method: PREINCUBATION)?
Answer: inactive; negative

Question: What about the mutagenic call (Test System: E. coli, Strain/Indicator: YG5190 (WP2 uvrA/pKM101 deficient in mutM gene), Metabolic Activation: None, Method: Preincubation) of the same compound?
Answer: inactive; negative. addition of sodium nitrite (100 ug/plate) increased mutagenic response

Question: What about the mutagenic call (Test System: E. coli, Strain/Indicator: YG5190 (WP2 uvrA/pKM101 deficient in mutM gene), Metabolic Activation: S9, Method: Preincubation) of the same compound?
Answer: inactive; negative. addition of sodium nitrite (100 ug/plate) increased mutagenic response

Question: And the mutagenic call (Test System: HCT116 COLON CANCER CELLS, Strain/Indicator: HCT116 CELLS (HPRT)/6-THIOGUANINE, Metabolic Activation: NONE, Method: STANDARD PLATE)?
Answer: inactive; negative

Question: Which results are given for `COc1cc(Cc2cnc(N)nc2N)cc(OC)c1OC`?
Answer: mutagenic call (Test System: AMES SALMONELLA TYPHIMURIUM, Strain/Indicator: TA97A, Metabolic Activation: NONE, Method: STANDARD PLATE): inactive; negative; mutagenic call (Test System: AMES SALMONELLA TYPHIMURIUM, Strain/Indicator: TA97A, Metabolic Activation: RAT, LIVER, S-9, PHENOBARBITAL, Method: STANDARD PLATE): inactive; negative; mutagenic call [1]: active; positive; mutagenic call (Test System: AMES SALMONELLA TYPHIMURIUM, Strain/Indicator: TA98, Metabolic Activation: RAT, LIVER, S-9, PHENOBARBITAL, Method: STANDARD PLATE): active; positive; mutagenic call [2]: inactive; negative; mutagenic call (Test System: AMES SALMONELLA TYPHIMURIUM, Strain/Indicator: TA100, Metabolic Activation: RAT, LIVER, S-9, PHENOBARBITAL, Method: STANDARD PLATE): inactive; negative; mutagenic call [3]: inactive; negative; mutagenic call (Test System: AMES SALMONELLA TYPHIMURIUM, Strain/Indicator: TA102, Metabolic Activation: RAT, LIVER, S-9, PHENOBARBITAL, Method: STANDARD PLATE): inactive; negative; mutagenic call (Test System: AMES SALMONELLA TYPHIMURIUM, Strain/Indicator: TA1538, Metabolic Activation: NONE, Method: STANDARD PLATE): active; positive; mutagenic call (Test System: AMES SALMONELLA TYPHIMURIUM, Strain/Indicator: TA1538, Metabolic Activation: RAT, LIVER, S-9, PHENOBARBITAL, Method: STANDARD PLATE): active; positive; mutagenic call (Test System: E.COLI, Strain/Indicator: WP2UVRA/PKM101, Metabolic Activation: NONE, Method: PREINCUBATION): inactive; negative; mutagenic call (Test System: E.COLI, Strain/Indicator: WP2UVRA/PKM101, Metabolic Activation: RAT LIVER S-9, PHENOBARBITAL AND 5,6-BENZOFLAVONE, Method: PREINCUBATION): inactive; negative

Question: Which results are given for `C[C@H]1[C@H](O)CCC2=CC(=O)[C@]3([C@@]4(CO)CO4)O[C@@H]3[C@@]21C`?
Answer: mutagenic call [2]: active; positive; mutagenic call (Test System: E. COLI, Strain/Indicator: WP2 UVRA, Metabolic Activation: NONE, Method: STANDARD PLATE): active; positive
